# Patent publication US9844226B2 (AJINOMOTO CO., INC., priority 2009, dated 2017)
# Legend:
# panelists [1] = assay: Sensory evaluation of salty taste in low salt chicken stock, use in combination with an organic acid; format: in vivo, human; conditions: γ-Glu-Abu 0.0040 g/dL in low salt chicken stock (salt 0.48 g/dL); control = 3, 1.25x salt = 4, 1.5x salt = 5; n=6
# Description: The sensory evaluation tests were carried out as follows. […] A test compound in an appropriate amount was dissolved in the solution, and the salty taste strength was measured. No pH adjustment is necessary, such as the lowering of the pH, because there is no difference in pH between the solution after dissolving each test compound and the control without any added compound. […] To clarify the scale, the sensory evaluation scores were set as follows: the salty taste of the control: 3 points; the salty taste of a soup with increased salt concentration by 1.25 times as compared to that of control: 4 points; and the salty taste of a soup with increased salt concentration by 1.5 times as compared to that of the control: 5 points. The sensory evaluation was carried out using a panel of n (the number of panelists)=6. For the scoring a linear scale method was used. In this method, the score was marked as a position on a straight line showing positions for scores ranging from 1 3 5. The panelists used in this test were persons who had been engaged in the development of seasonings for foods for at least one year or longer in total, and who were capable of determining that the difference in potency between γ-[…] and γ-[…] each added to an umami and salty taste solution was around 10 times, while confirming the ability of these persons at regular intervals.
# human CaSR = target: T1, human CaSR (Homo sapiens, UniProt P41180, E1011Q); assay: Evaluation of CaSR agonist activity (Ca2+ fluorescence, EC50); format: cell-based; conditions: comparison with other dipeptides
# T1 construct: expressed in transfected cells; host or cells: 293E cells (EBNA1-expressing HEK293 cells, ATCC No. CRL-10852), transient transfection with Fugene6
# T1 sequence (P41180 20-1078 E1011Q): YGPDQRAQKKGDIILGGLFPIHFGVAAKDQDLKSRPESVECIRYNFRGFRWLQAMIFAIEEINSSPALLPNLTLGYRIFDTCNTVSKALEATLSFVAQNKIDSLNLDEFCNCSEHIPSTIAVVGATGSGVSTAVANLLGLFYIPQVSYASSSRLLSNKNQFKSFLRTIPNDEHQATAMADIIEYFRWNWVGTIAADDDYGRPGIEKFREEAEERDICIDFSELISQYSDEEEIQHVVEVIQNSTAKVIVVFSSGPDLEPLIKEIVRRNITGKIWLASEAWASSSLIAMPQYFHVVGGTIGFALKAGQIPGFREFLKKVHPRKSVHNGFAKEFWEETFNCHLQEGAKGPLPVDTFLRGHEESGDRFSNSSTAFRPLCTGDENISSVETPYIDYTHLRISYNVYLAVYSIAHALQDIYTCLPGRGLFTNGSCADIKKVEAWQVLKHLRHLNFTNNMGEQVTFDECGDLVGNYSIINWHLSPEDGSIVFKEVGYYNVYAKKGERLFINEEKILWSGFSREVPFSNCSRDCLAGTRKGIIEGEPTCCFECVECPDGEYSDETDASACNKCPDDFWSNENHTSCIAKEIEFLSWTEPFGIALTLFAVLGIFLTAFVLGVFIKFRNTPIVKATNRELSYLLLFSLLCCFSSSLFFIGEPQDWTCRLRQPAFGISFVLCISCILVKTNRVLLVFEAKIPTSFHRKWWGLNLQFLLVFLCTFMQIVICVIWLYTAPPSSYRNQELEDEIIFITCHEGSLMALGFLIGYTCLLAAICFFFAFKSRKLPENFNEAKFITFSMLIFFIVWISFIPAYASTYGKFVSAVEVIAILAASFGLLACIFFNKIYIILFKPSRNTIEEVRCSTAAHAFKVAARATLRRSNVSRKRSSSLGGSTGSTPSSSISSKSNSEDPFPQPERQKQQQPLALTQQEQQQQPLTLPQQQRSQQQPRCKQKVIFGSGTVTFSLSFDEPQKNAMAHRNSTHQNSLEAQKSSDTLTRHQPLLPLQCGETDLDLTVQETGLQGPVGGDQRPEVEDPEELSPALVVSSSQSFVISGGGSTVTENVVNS
# Description: The cells were seeded into a F25 flask at 3×10^6 cells/10 mL, and allowed to stand in a CO2 incubator (5% CO2, 37° C.) for 24 hours. Then, the cells were transfected with the human CaSR-expression plasmid hCaSR/pcDNA3.1 by using a transfection reagent Fugene6 (available from Roche Company). The cells were placed in a CO2 incubator for 6 to 7 hours, and then the cells were harvested by using DMEM/Ham's-F12 containing 10% fetal calf serum. Then, the cells were seeded into a poly-D-lysine-coated 96-well plate (BD-Biocoat) at 70,000 cells/well.
# The plate was allowed to stand over 24 hours in a CO2 incubator, and then the culture medium was removed from the 96-well plate into which the cells were seeded. […] Then, the indicator was incorporated into the cells by allowing the plate to stand at 37° C. for one hour, and then at room temperature for 10 minutes.
# Method for the Determination of EC50:
# The differences between the maximum value and minimum value of the fluorescent intensity (RFU (Max-Min)) were determined by automatic calculation of FLEX Station before and after the addition of the compound. The percentage of activities was calculated, with the RFU (Max-Min) at the time when the maximum concentration of the compound added was defined to be 100%, and the RFU (Max-Min) at the time when the 0.1% BSA-containing assay buffer containing no test compound was defined to be 0%.
# [2] = Stability (statement only); format: physicochemical; conditions: compared with γ-Glu-Cys
# panelists [3] = assay: Quantitative sensory evaluation test of salty taste enhancement; format: in vivo, human
# Description: After the test compound was dissolved, samples more acidic than a control containing no added test compound were adjusted, before further use, with NaOH to have a pH in a range of ±0.2 from the pH of the control to which no test compound was added.
# The sensory evaluation scores were as follows, the control to which no test compound was added, i.e. a 0.5 g/dL sodium chloride solution: 0 points; a 0.75 g/dL sodium chloride solution: 5 points. The sensory evaluation was conducted on a scale ranging from −5 to 0 to 5, with n=5. The “initial taste” refers to the taste perceived by each panelist from the start of eating the sample to 2 seconds thereafter, while the term “middle/after taste” refers to that perceived by each panelist from 2 seconds on and after eating the same, i.e. perceived during the period including both the middle taste and the after taste. For the scoring, a linear scale method was used. In this method, the score was marked as a position on a straight line showing positions for scores ranging from −5˜0˜5. The panelists were persons who were engaged in the development of seasonings for foods for one year or longer in total, and who were capable of determining that the difference in the potency between γ-Glu-Cys-Gly and γ-Glu-Val-Gly each added to a umami taste and salty taste solution was around 10 times, while confirming the ability of these persons at regular intervals.
# [4] = 0.004 g/dL in 0.5 g/dL NaCl, 0.5 g/dL NaCl = 0, 0.75 g/dL NaCl = 5, n=5
smiles,measurement,setting,value
CC[C@H](NC(=O)CC[C@H](N)C(=O)O)C(=O)O,Str. of Salty Taste (score),panelists [1],3.56 score
same,CaSR effect and activity (in words),human CaSR,strong CaSR effect and activity comparable to that of γ-Glu-Cys
same,Stability (in words),[2],excellent in stability
same,Sensory Evaluation Profile (salty taste),panelists [3]; 0.004 g/dL in 0.5 g/dL NaCl,The salty taste was enhanced
same,"Strength of Salty Taste Impartment, Initial Taste",panelists [3]; [4],1.6 points
same,"Strength of Salty Taste Impartment, Middle/After Taste",panelists [3]; [4],1.5 points
same,Salty taste enhancement ability (in words),panelists [3]; comparison of γ-Glu-Val-Gly and γ-Glu-Abu,extremely well balanced salty taste enhancement
